The results in this text go back to patent US12377167B2, “Application of AuCs or substances containing AuCs in the preparation of drugs for preventing and/or treating glaucoma” (Shenzhen Profound-View Pharma Tech Co., Ltd, priority 2016, dated 2025).

Experiment [1] concerns the target T1, Aβ(1-40) (Homo sapiens, UniProt P05067).
T1 construct: Freeze-dried powder of amyloid polypeptide Aβ(1-40) (Invitrogen Corp.); purchased Invitrogen Corp
The experiment can be described thus: In vitro Aβ(1-40) aggregation kinetics, ThT fluorescent labeling method. The experiment is classed as biochemical. Conditions: 20 μM Aβ(1-40); L-NIBC 1.0 and 10.0 ppm; gold nanoparticles up to 20.0 ppm. An excerpt:
As described above, Aβ plays an important role in the pathogenesis of glaucoma and is an important target for treatment of glaucoma based on the optic nerve protection mechanism. […] Moreover, the function is from AuCs other than ligand. […] Thioflavin T (abbreviation: ThT) is a dye specifically for dyeing amyloid fibers. […] When it encounters amyloid polypeptides or proteins with a fiber structure, it will immediately couple with the amyloid polypeptides or proteins and its fluorescence intensity will increase exponentially. Just because of this property, ThT is widely used as a marker to monitor amyloidosis of peptides or proteins. The fibrosis process of Aβ(1-40) is also a nucleation-controlled polymerization process. Therefore, the growth curve of Aβ(1-40) fiber measured by ThT fluorescent labeling method is mainly divided into three stages: Initial stage, growth stage and platform stage. The initial stage is mainly a stage when Aβ(1-40) undergoes conformational transition to form misfolding and then aggregates and nucleates. […] All the Aβ(1-40) PBS solutions for the experiments were prepared freshly. […] The samples were incubated continuously in a 96-well plate at 37° C. by ThT fluorescent labeling method, and monitored the fluorescence intensity by microplate reader once every 10 minutes.

The test system of experiment [2] is RGC-5 cells. The experiment can be described thus: NMDA-induced RGC-5 cell excitotoxicity model, CCK-8. The experiment is classed as cell-based. Conditions: 250 μM NMDA, 0.01-10 ppm.
Procedure: This embodiment used cell survival rate as an index.
RGC-5 cells in logarithmic growth phase were diluted with complete medium to get a cell suspension in a density of 5×10^4/mL. The suspension was inoculated 100 μL per well into a 96-well plate, and cultivated in an incubator with 5% CO2 at 37° C. One of administration ways in an experiment group is: The original culture medium was removed when the cells attached to the wells, and 50 μL test substances (the test substances were: three kinds of L-NIBC-modified AuCs in particle sizes of 2.6 nm, 1.8 nm or 1.1 nm, or four kinds of L-NIBC-modified gold nanoparticles in particle sizes of 18.2 nm, 10.1 nm, 6.0 nm or 3.6 nm, or L-NIBC molecules not bonded with AuCs or gold nanoparticles as reference) solutions at different concentrations prepared by maintenance medium were added to different wells to make the final concentration be 0.01, 0.05, 0.1, 0.5, 1, 5 and 10 ppm respectively, then 50 μL of NMDA (the final concentration was 250 μM) was added to the administration group and model group after 2 hours' pretreatment. […] The absorbance value of each well at 450 nm wave length was measured to evaluate the pre-protective effect of AuCs on NMDA injury. […] The absorbance value of each well at 450 nm wave length was measured to evaluate the curative effect of AuCs on NMDA injury. […]
The subject of experiment [3] is RGC-5 cells. Nature of the experiment: H2O2-induced RGC-5 cell oxidative stress injury model, CCK-8 cell viability. The experiment is classed as cell-based.
Procedure: (§1) The cell viability was used as an index in the experiment of this embodiment.
RGC-5 cells in logarithmic growth phase were diluted with complete medium (MEM+10% FBS+1% penicillin-streptomycin) to get a cell suspension in a density of 5×10^4/mL. The suspension was inoculated 100 μL per well into a 96-well plate, and cultivated in an incubator with 5% CO2 at 37° C. One of administration ways in an experiment group is: The original culture medium was removed when the cells attached to the wells, and 50 μL test substances (the test substances were: three kinds of L-NIBC-modified AuCs in particle sizes of 2.6 nm, 1.8 nm or 1.1 nm, or four kinds of L-NIBC-modified gold nanoparticles in particle sizes of 18.2 nm, 10.1 nm, 6.0 nm or 3.6 nm, or L-NIBC molecules not bonded with AuCs or gold nanoparticles as reference) solutions at different concentrations prepared by maintenance medium (DMEM medium+2% FBS+1% penicillin-streptomycin) were added to different wells to make the final concentration be 0.01, 0.05, 0.1, 0.5, 1, 5 and 10 ppm respectively, then 50 μL of H2O2 (the final concentration was 100 μM) was added to the administration group and model group after 2 hours' pretreatment. The cells were incubated for 24 h, then 10% CCK-8 was added to each well and incubated for 4 h. […]
Experiment [4] addresses T1, Aβ(1-40). The experiment can be described thus: AFM topography of Aβ(1-40) after 48 h co-incubation. The experiment is classed as biochemical. Conditions: co-incubated for 48 h. On the procedure: Panel A is the AFM topography after Aβ(1-40) was incubated alone for 48 h. Panel B is an AFM topography after Aβ(1-40) was coincubated with L-NIBC for 48 h. Panel C and panel D are AFM topographies after Aβ(1-40) was coincubated with gold nanoparticles with an average particle size of 6.0 nm and 3.6 nm respectively (modified with L-NIBC) for 48 h. And panel E is an AFM topography after Aβ(1-40) was coincubated with AuCs in an average particle size of 1.8 nm (modified with L-NIBC) for 48 h.

Experiment [5] relates to RGC-5 cells. Nature of the experiment: Sodium nitroprusside (SNP)-induced RGC-5 apoptosis model, CCK-8 cell viability. The experiment is classed as cell-based.
Procedure: as §1
RGC-5 cells in logarithmic growth phase were diluted with complete medium to get a cell suspension in a density of 5×10^4/mL. The suspension was inoculated 100 μL per well into a 96-well plate, and cultivated in an incubator with 5% CO2 at 37° C. […] The absorbance value of each well at 450 nm wave length was measured to evaluate the pre-protective effect of AuCs on SNP injury. […] The absorbance value of each well at 450 nm wave length was measured to evaluate the curative effect of AuCs on SNP injury. […]
RGC-5 cells in logarithmic growth phase were diluted with complete medium to get a cell suspension in a density of 5×10^4/mL. […] The absorbance value of each well at 450 nm wave length was measured to evaluate the pre-protective effect of AuCs on SNP injury. […]

T1 sequence (P05067 672-711 limits assumed): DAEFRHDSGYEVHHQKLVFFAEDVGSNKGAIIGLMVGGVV

What is called viability is the share of living cells, or the viability signal relative to a control. With `CC(C)C(=O)N[C@@H](CS)C(=O)O` [L-NIBC, N-isobutyryl-L-cysteine], the “effect on Aβ(1-40) amyloidosis kinetics” value in experiment [1] was “no obvious effect on Aβ(1-40) amyloidosis kinetics”. Moreover, in experiment [2], the “effect on cell viability / neurotransmitter mediated excitatory RGC apoptosis” value is given as “did not have an obvious effect”. Further, in experiment [3] (H2O2-injured RGC cell model, CCK-8), the “effect on cell viability / RGC apoptosis triggered by oxidative stress” value is “did not have an obvious effect”. The viability at 10 ppm in experiment [3] (RGC5, 10 ppm, H2O2, 24 h, read-out: cell viability relative to the blank control group (set to be 100%)) was 47.5 ± 6.6%; in experiment [5] (RGC5, 10 ppm, 700 μM SNP, 24 h, read-out: cell viability relative to the blank control group (set to be 100%)) it was 52.8 ± 8%. In addition, the “Aβ(1-40) fibers in AFM topography” value in experiment [4] is on record as “no obvious effect on the formation of Aβ(1-40) fibers”. Further, the “effect on cell viability / SNP-induced RGC apoptosis” value in experiment [5] (SNP-injured RGC cell model, CCK-8) is recorded as “did not have an obvious protective effect”.
